The structures appear in SMILES notation. Bounds are passed on as bounds.

The subject of the data set is Rattus norvegicus. To be noted: oral.
Setting [1] is: short-term, duration: 28 days, gavage, F, Sprague-Dawley, Clinical Observation: Salivation1000 (transient) + Body Weight Changes: Weight gain decrease + Hematology: Hgb decrease, Hct decrease, RBC ….
Setting [2] is: short-term, duration: 28 days, gavage, M, Sprague-Dawley, Clinical Observation: Salivation1000 (transient) + Body Weight Changes: Weight gain decrease + Hematology: Hgb decrease, Hct decrease, RBC ….
[3] abbreviates: short-term, duration: 28 days, gavage, F, Sprague-Dawley.
The mark [4] stands for this setting: short-term, duration: 28 days, gavage, M, Sprague-Dawley.
Where [5] appears, read: short-term, duration: 28 days, gavage, F, Sprague-Dawley, Absolute Organ Weight: Liver increase, Ovary increase, Thyroid increase + Relative Organ Weight: Ovary increase, Thyroid increase + ….
[6] abbreviates: short-term, duration: 28 days, gavage, M, Sprague-Dawley, Absolute Organ Weight: Liver increase, Ovary increase, Thyroid increase + Relative Organ Weight: Ovary increase, Thyroid increase + ….
The mark [7] stands for this setting: short-term, duration: 28 days, gavage, M/F, Clinical Observation: Salivation Soft stool Mucous stool + Body Weight Changes: Weight gain decrease + Food Consumption: decrease + ….
Where [8] appears, read: subchronic, duration: 90 days, gavage, M/F, Wistar, Clinical Observation: Salivation + Body Weight Changes: Weight gain decrease + Food Consumption: decrease + Urinalysis: Ket increase, ….

With `C=C(F)C(F)(F)C(F)(F)C(F)F` [2,3,3,4,4,5,5-Heptafluoro-1-pentene], under “short-term, duration: 28 days, gavage, M/F, Deaths + Clinical Observation: Salivation Locomotor activity decrease, Whitish discoloration of tooth Bradypnea Reddening of extremity and …”, the NOEL came to 8 mg/kg-day.

With `O=C(c1ccc(O)cc1)c1ccc(O)c(O)c1O` [2,3,4,4'-Tetrahydroxybenzophenone], the NOEL (subchronic, duration: 42 days, gavage, M, CD(SD), Clinical Observation: Salivation + Functional Observational Battery: Hind limb grip strength decrease + Body Weight Changes: Weight gain …) is < 100 mg/kg-day.

With `CC(=O)C(C)=O` [2,3-Butanedione], under “subchronic, duration: 90 days, gavage, M/F, CFE, Body Weight Changes: decrease + Water Consumption: increase + Hematology: HGB decrease, HCT decrease, RET increase, WBC increase, NEUT …”, the NOEL stood at 90 mg/kg-day.

Take `CC(C)(C)OOC(C)(C)CCC(C)(C)OOC(C)(C)C` [2,5-Dimethyl-2,5-di-(tert-butylperoxy)hexane]: under setting [1], the lowest-observed-adverse-effect level (LOAEL) (as a rule, the lowest tested level that showed an adverse finding) is 200 mg/kg-day; the LOEL turned out to be 200 mg/kg-day; the no-observed-adverse-effect level (NOAEL) (commonly the highest tested level that showed no adverse finding) amounted to 40 mg/kg-day; the NOEL worked out at 40 mg/kg-day. Besides, under setting [2], the LOAEL came out at 1000 mg/kg-day, the LOEL was found to be 200 mg/kg-day, the NOAEL was determined as 200 mg/kg-day and the NOEL stood at 40 mg/kg-day.

For the molecule `Cc1ccc(C)c(N)c1` [2,5-Dimethylaniline], the NOEL runs as follows: (short-term, duration: 28 days, gavage, F, Sprague-Dawley, Clinical Observation: Staggering gait Lacrimation Salivation + Body Weight Changes: Body weight gain decrease + Food Consumption: decrease…) 12 mg/kg-day; (short-term, duration: 28 days, gavage, M, Sprague-Dawley, Clinical Observation: Staggering gait Lacrimation Salivation + Body Weight Changes: Body weight gain decrease + Food Consumption: decrease…) < 12 mg/kg-day.

In the case of `Cc1cccc(C)c1N` [2,6-Dimethylaniline], the NOEL (subchronic, duration: 13 weeks, gavage, M/F, Fischer 344, Body Weight Changes: decrease + Hematology: WBC decrease, RBC decrease, Hgb decrease, Hct decrease, Lympho decrease + Blood Chemistry: K …) was determined as 20 mg/kg-day.

On to `CCCCOCCOCCO` [2-(2-Butoxyethoxy)ethanol], for which the no observed adverse effect level (NOAEL) (chronic, duration: 91 days, drinking water, M/F, Fischer 344, Body Weight Changes: Terminal body weight decrease + Food Consumption: decrease + Water Consumption: decrease + Hematology: RBC decrease, …) was 250 mg/kg-day.

Turning to `CCCOCCOCCO` [2-(2-Propoxyethoxy)ethanol], the NOAEL (subchronic, duration: 6 weeks, gavage, M, COBS, CD:BR, Clinical Observation: Narcosis(initial period only) + Body Weight Changes: Terminal body weight decrease + Food Consumption: decrease(day 3 …) came out at 814 mg/kg-day.

Regarding `Cc1ccc(O)c(-n2nc3ccccc3n2)c1` [2-(2H-Benzotriazol-2-yl)-4-methylphenol], the NOEL (subchronic, gavage, M, Sprague-Dawley, Urinalysis: Protein increase + Blood Chemistry: PL increase + Absolute Organ Weight: Liver increase + Relative Organ Weight: Liver increase…) is < 30 mg/kg-day.

As to `Nc1cc(Cl)ccc1O` [2-Amino-4-chlorophenol], for the setting “subchronic, gavage, M, Sprague-Dawley, Hematology: RBC decrease, Hgb decrease, MCHC decrease, Ret increase, Hct decrease + Absolute Organ Weight: Spleen increase + Relative Organ …”, the NOEL is 50 mg/kg-day.

As for `O=C(O)c1ccccc1Cl` [2-Chlorobenzoic acid], for the setting “subchronic, gavage, M, Sprague-Dawley, Clinical Observation: Salivation + Body Weight Changes: decrease + Food Consumption: decrease + Hematology: RBC decrease, Hgb decrease, RET …”, the NOEL worked out at 40 mg/kg-day.

In the case of `N#Cc1ccccc1Cl` [2-Chlorobenzonitrile], the NOEL (subchronic, gavage, M, Sprague-Dawley, Urinalysis: Ketone body increase + Hematology: APTT increase + Blood Chemistry: Cho increase, PL increase, ALT increasegamma-GTP increase, …) came to 10 mg/kg-day.

Turning to `CCCCC(CC)C(=O)OOC(C)(C)C1CCCCC1` (stereo not given) [2-Cyclohexylpropan-2-yl 2-ethylhexaneperoxoate], where the note is “short-term, duration: 28 days, gavage, M/F, Clinical Observation: Salivation + Blood Chemistry: GLUC decrease, TP increase, CRN decrease, BIL increase, T-CHO increase + Absolute Organ …”, the NOEL is < 8 mg/kg-day.

Turning to `C=C(C)C(=O)NCCN1CCNC1=O` [2-Methyl-N-[2-(2-oxoimidazolidin-1-yl)ethyl]prop-2-enamide], where the note is “short-term, duration: 28 days, gavage, M/F, Deaths + Clinical Observation: Salivation Abnormal breathing + Relative Organ Weight: Kidney increase + Necropsy: Stomach- Raised, limiting…”, the NOEL turned out to be 200 mg/kg-day.

Consider `Cc1ncc[nH]1` [2-Methylimidazole], for which, where the note is “subchronic, diet, M/F, Fischer 344, Body Weight Changes: decrease + Food Consumption: decrease + Hematology: Plt increase, Hct decrease, Hgb decrease, RBC decrease, Ret …”, the NOEL is < 60 mg/kg-day.

As to `OCCOc1ccccc1` [2-Phenoxyethanol], where the note is “subchronic, duration: 90 days, gavage, M/F, Clinical Observation: Lack of grooming Lethargy Prostration + Body Weight Changes: decrease + Food Consumption: decrease + Water Consumption…”, the no-observed-adverse-effect level (NOAEL) amounted to 80 mg/kg-day.

For `Cc1cc(-c2ccc(N)c(C)c2)ccc1N.Cl.Cl` [3,3'-Dimethylbenzidine dihydrochloride], where the note is “subchronic, duration: 13 weeks, drinking water, M/F, Fischer 344, Deaths + Clinical Observation: Crusty red exudate on the noses Thinness Stains on the fur + Body Weight Changes: decrease + Water …”, the NOEL was < 45.6 mg/kg-day.

In the case of `COC(CC#N)OC` [3,3-Dimethoxypropiononitrile], the NOEL (short-term, duration: 28 days, gavage, M/F, Clinical Observation: Lethargy Salivation + Body Weight Changes: body weight gain decrease + Urinalysis: Urine volume increase, pH decrease…) was < 15 mg/kg-day.

Turning to `O=C(Nc1ccccc1)c1cc2ccccc2cc1O` [3-Hydroxy-2-naphthanilide], the NOAEL reads like this: under setting [3], 1000 mg/kg-day; under setting [4], 1000 mg/kg-day. In addition, the NOEL under setting [3] turned out to be 1000 mg/kg-day; the NOEL under setting [4] came out at 1000 mg/kg-day; the NOEL (subchronic, gavage, Sprague-Dawley) worked out at 1000 mg/kg-day.

`CCCC1CCC(C2CCC(=O)CC2)CC1` (stereo not given) [4'-Propyl[1,1'-bi(cyclohexane)]-4-one]: the NOEL (short-term, duration: 28 days, gavage, M/F, Clinical Observation: Salivation + Blood Chemistry: IP increase, CRN increase, GPT increase, BIL increase, TP increase, T-CHO increase, …) stood at 8 mg/kg-day.

Turning to `CC(C)(C)c1cc(Cc2cc(C(C)(C)C)c(O)c(C(C)(C)C)c2)cc(C(C)(C)C)c1O` [4,4'-Methylenebis(2,6-di-t-butylphenol)], under setting [5], the LOEL turned out to be 200 mg/kg-day and the NOEL is 40 mg/kg-day. In addition, under setting [6], the LOEL turned out to be 1000 mg/kg-day and the NOEL is 200 mg/kg-day.

For the molecule `CC(C)(c1ccc(O)cc1)c1cc(C(C)(C)c2ccc(O)cc2)c(O)cc1O` [4,6-Bis[2-(4-hydroxyphenyl)propan-2-yl]benzene-1,3-diol], under setting [7], the NOAEL is 20 mg/kg-day and the NOEL is < 5 mg/kg-day.

Consider `Cl.Nc1ccc(Cl)cc1` [4-Chloroaniline hydrochloride], for which, where the note is “subchronic, duration: 13 weeks, gavage, M/F, Fischer 344, Deaths + Body Weight Changes: decrease + Hematology: WBC increase, Lympho increase, Hct decrease, Hgb decrease, Methemoglobin increase, RBC …”, the NOEL was < 5 mg/kg-day.

With `O=Cc1ccc(Cl)cc1` [4-Chlorobenzaldehyde], the NOEL by setting is: (short-term, duration: 28 days, gavage, F, Sprague-Dawley, Clinical Observation: Salivation Tremor Soiled perigenital fur + Functional Observational Battery: Motor activity decrease + Body Weight …) 40 mg/kg-day; (short-term, duration: 28 days, gavage, M, Sprague-Dawley, Clinical Observation: Salivation Tremor Soiled perigenital fur + Functional Observational Battery: Motor activity decrease + Body Weight …) 200 mg/kg-day.

Take `CCCCCCc1ccc(O)cc1O` [4-Hexylresorcinol]: the NOEL (subchronic, duration: 13 weeks, gavage, M/F, Fischer 344, Deaths + Clinical Observation: Death + Body Weight Changes: decrease + Histopathology: Testis-Hypospermatogenesis Seminal vesicles-…) was < 62.5 mg/kg-day.

Turning to `CC1(C)CC(O)CC(C)(C)N1[O]` [4-Hydroxy-2,2,6,6-tetramethylpiperidin-1-yl)oxidanyl], the NOEL (short-term, duration: 28 days, gavage, M/F, Clinical Observation: Salivation + Hematology: Trend of Anemia + Absolute Organ Weight: Spleen increase, Liver increase + Histopathology: …) came out at 40 mg/kg-day.

In the case of `O=C(O)c1ccc([N+](=O)[O-])cc1` [4-Nitrobenzoic acid], the NOEL reads like this: (subchronic, duration: 13 weeks, diet, F, Fischer 344, Body Weight Changes: decrease + Hematology: Methemoglobin increase, Hct decrease, ,Hgb decrease, RBC decrease, Heinz body increase + Blood …) 40 mg/kg-day; (subchronic, duration: 13 weeks, diet, M/F, Fischer 344, Body Weight Changes: decrease + Hematology: Methemoglobin increase, Hct decrease, ,Hgb decrease, RBC decrease, Heinz body increase + Blood …) < 60.5 mg/kg-day.

Take `O=[N+]([O-])c1ccc(CCl)cc1` [4-Nitrobenzyl chloride]: the NOEL (short-term, duration: 28 days, gavage, M/F, Sprague-Dawley, Clinical Observation: Salivation + Functional Observational Battery: Locomotor activity decrease + Food Consumption: decrease + Water …) is < 8 mg/kg-day.

As for `C=CCOCCCCO` [4-allyloxy-1-butanol], the NOEL (short-term, duration: 28 days, gavage, M/F, Deaths + Clinical Observation: nasal discharge flatulence + Body Weight Changes: body weight gain decrease + Food Consumption: decrease + …) was determined as 10 mg/kg-day.

For `CC(=O)CCC=C(C)C` [6-Methyl-5-hepten-2-one], under setting [8], the no-observed-adverse-effect level (NOAEL) turned out to be 50 mg/kg-day and the NOEL is < 50 mg/kg-day.

For `COc1c2occc2cc2ccc(=O)oc12` [8-Methoxypsoralen], the NOEL (subchronic, duration: 13 weeks, gavage, M/F, Fischer 344, Deaths + Clinical Observation: Rough hair coat Hunched appearance + Body Weight Changes: decrease + Absolute Organ Weight: Liver increase + …) is < 25 mg/kg-day.

For the molecule `CNC[C@H](O)c1cccc(O)c1.Cl` [(-)-Phenylephrine hydrochloride], the NOEL (subchronic, duration: 12 weeks, diet, M/F, Fischer 344, Deaths + Clinical Observation: Hyperexcitable + Body Weight Changes: decrease + Histopathology: Eye-Chronic keratitis Testis-Atrophy Seminal…) worked out at 240 mg/kg-day.

As to `C=CC(=O)OCc1c(Br)c(Br)c(Br)c(Br)c1Br` [(Pentabromophenyl)methyl acrylate], for the setting “short-term, duration: 28 days, gavage, M/F, Clinical Observation: Salivation increase, Hunchback position Staggering gait Lethargy Ptosis Emacation Flush in extremities + Urinalysis: S…”, the NOEL was < 15 mg/kg-day.

In the case of `CC(=O)Nc1ccc(O)cc1` [Acetaminophen], the NOEL is 20 mg/kg-day (short-term, duration: 19 days, gavage, F, Wistar, Deaths + Clinical Observation: Emaciation(dead animals) Hypothermia(dead animals) Bradypnea(dead animals) Locomotor activity decrease(dead …); 20 mg/kg-day (short-term, duration: 19 days, gavage, M, Wistar, Deaths + Clinical Observation: Emaciation(dead animals) Hypothermia(dead animals) Bradypnea(dead animals) Locomotor activity decrease(dead …); < 76.8 mg/kg-day (subchronic, duration: 13 weeks, diet, M/F, Fischer 344, Deaths + Clinical Observation: Dark yellow urine + Body Weight Changes: decrease + Absolute Organ Weight: Right testis decrease, Thymus …).

Source of the values: EPA's ToxValDB 9.5.
